Test results: patent publication US11432573B2, “Food and beverage sweeteners” (priority 2017, dated 2022)

Experiment: Serum glucose levels in subjects after consuming coffee with sweetener blend or sucrose (Example 1)
Type: in vivo, human
Conditions: for serum glucose (Average): average across three subjects
Experimental: The following Example summarizes the impact of the above-listed formulas on serum glucose levels within three different subjects. Specifically, 6.0 grams of a blend of Formula-1 through Formula-5 (above) were stirred vigorously into one shot of regular caffeinated expresso coffee that was topped to 350 milliliters of warm water. The coffee was then completely consumed by each subject within 5 minutes, following a time=0 measurement of each subject's serum glucose levels. Each subject's serum glucose levels were subsequently measured at 15 minute intervals, up to 100 minutes following the time=0 measurement. The impact of traditional sucrose on each of the subject's serum glucose levels was also measured, so that the impact of the test sweetener composition on serum glucose levels could be measured relative to such impact by traditional sucrose. The following Tables summarize the serum glucose level measurements observed with each subject (Table-1, Table-2, and Table-3), along with the average across each of the three subjects (Table-4)(the data represent mmol/L serum glucose).

**Q.** With `OC[C@H]1O[C@@](CO)(O[C@H]2O[C@H](CO)[C@@H](O)[C@H](O)[C@H]2O)[C@@H](O)[C@@H]1O` [Sucrose, sucrose] as the compound, how does the serum glucose (Subject 1, T = 0 (before consumption)) read?
**A.** 5.20 mmol/L

**Q.** What about the serum glucose (Subject 1, T = 15 minutes) of the same compound?
**A.** 6.20 mmol/L

**Q.** And the serum glucose (Subject 1, T = 30 minutes)?
**A.** 7.60 mmol/L

**Q.** And the serum glucose (Subject 1, T = 45 minutes)?
**A.** 7.60 mmol/L

**Q.** And the serum glucose (Subject 1, T = 60 minutes)?
**A.** 7.00 mmol/L

**Q.** What about the serum glucose (Subject 1, T = 75 minutes) of the same compound?
**A.** 6.20 mmol/L

**Q.** What about the serum glucose (Subject 1, T = 100 minutes) of the same compound?
**A.** 6.00 mmol/L

**Q.** And the serum glucose (Subject 2, T = 0 (before consumption))?
**A.** 5.10 mmol/L

**Q.** What about the serum glucose (Subject 2, T = 15 minutes) of the same compound?
**A.** 6.00 mmol/L

**Q.** And the serum glucose (Subject 2, T = 30 minutes)?
**A.** 7.50 mmol/L

**Q.** And the serum glucose (Subject 2, T = 45 minutes)?
**A.** 7.40 mmol/L

**Q.** And the serum glucose (Subject 2, T = 60 minutes)?
**A.** 7.00 mmol/L

**Q.** What about the serum glucose (Subject 2, T = 75 minutes) of the same compound?
**A.** 6.00 mmol/L

**Q.** What about the serum glucose (Subject 2, T = 100 minutes) of the same compound?
**A.** 5.60 mmol/L

**Q.** What about the serum glucose (Subject 3, T = 0 (before consumption)) of the same compound?
**A.** 5.20 mmol/L

**Q.** And the serum glucose (Subject 3, T = 15 minutes)?
**A.** 5.60 mmol/L

**Q.** And the serum glucose (Subject 3, T = 30 minutes)?
**A.** 7.70 mmol/L

**Q.** And the serum glucose (Subject 3, T = 45 minutes)?
**A.** 7.80 mmol/L

**Q.** What about the serum glucose (Subject 3, T = 60 minutes) of the same compound?
**A.** 7.40 mmol/L

**Q.** And the serum glucose (Subject 3, T = 75 minutes)?
**A.** 6.40 mmol/L

**Q.** What about the serum glucose (Subject 3, T = 100 minutes) of the same compound?
**A.** 6.20 mmol/L

**Q.** What about the “serum glucose (Average)” value (T = 0 (before consumption)) of the same compound?
**A.** 5.17 mmol/L

**Q.** And the “serum glucose (Average)” value (T = 15 minutes)?
**A.** 5.93 mmol/L

**Q.** What about the “serum glucose (Average)” value (T = 30 minutes) of the same compound?
**A.** 7.60 mmol/L

**Q.** What about the “serum glucose (Average)” value (T = 45 minutes) of the same compound?
**A.** 7.60 mmol/L

**Q.** And the “serum glucose (Average)” value (T = 60 minutes)?
**A.** 7.13 mmol/L

**Q.** And the “serum glucose (Average)” value (T = 75 minutes)?
**A.** 6.20 mmol/L

**Q.** What about the “serum glucose (Average)” value (T = 100 minutes) of the same compound?
**A.** 5.93 mmol/L
